From the supplement of paper PMC4862054

What was measured:
Conditions in all cases: incubation time: 72 h
MDA-MB-468 [1] = assay: normalised response (% of control), CellTiter-Glo; higher = more viable cells (100 = DMSO, 0 = benzethonium chloride kill control)
Summary of the method: (§1)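 Plates were normalised with 0.1 % DMSO as 100 and a positive kill control as 0. Breast cancer cell lines in 20 µl suspension had been seeded into 384-well plates with compound at 5 concentrations in 10-fold steps over a compound-specific 10,000-fold range, incubated 72 h, and read for CellTox Green fluorescence (485/520 nm) followed by CellTiter-Glo luminescence. Each value is the normalised signal at a single concentration.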

MCF-10A = assay: as above
Summary of the method: as §1

HDQ-P1 [2] = assay: as above
Summary of the method: as §1

SK-BR-3 [3] = assay: as above
Summary of the method: as §1

Hs578T [4] = assay: as above
Summary of the method: as §1

CAL-85-1 [5] = assay: as above
Summary of the method: as §1

HCC1599 [6] = assay: as above
Summary of the method: as §1

DU-4475 [7] = assay: as above
Summary of the method: as §1

HCC1143 [8] = assay: as above
Summary of the method: as §1

MDA-MB-436 [9] = assay: as above
Summary of the method: as §1

BT-474 [10] = assay: as above
Summary of the method: as §1

HCC1937 [11] = assay: as above
Summary of the method: as §1

CAL-120 [12] = assay: as above
Summary of the method: as §1

CAL-51 [13] = assay: as above
Summary of the method: as §1

MDA-MB-231 [14] = assay: as above
Summary of the method: as §1

MDA-MB-453 [15] = assay: as above
Summary of the method: as §1

BT-549 [16] = assay: as above
Summary of the method: as §1

MFM-223 [17] = assay: as above
Summary of the method: as §1

CAL-148 [18] = assay: as above
Summary of the method: as §1

MDA-MB-468 [19] = assay: normalised viability (% of control), CellTiter-Blue; higher = more viable cells (100 = DMSO, 0 = benzethonium chloride kill control)
Description: (§2)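 DSRT, CellTiter-Blue viability, 72 h incubation. Signal is normalised to DMSO and benzethonium chloride controls. Value is the normalised response at dose 1.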

HDQ-P1 [20] = assay: as above
Description: as §2

SK-BR-3 [21] = assay: as above
Description: as §2

Hs578T [22] = assay: as above
Description: as §2

CAL-85-1 [23] = assay: as above
Description: as §2

HCC1599 [24] = assay: as above
Description: as §2

DU-4475 [25] = assay: as above
Description: as §2

HCC1143 [26] = assay: as above
Description: as §2

MDA-MB-436 [27] = assay: as above
Description: as §2

BT-474 [28] = assay: as above
Description: as §2

HCC1937 [29] = assay: as above
Description: as §2

CAL-120 [30] = assay: as above
Description: as §2

CAL-51 [31] = assay: as above
Description: as §2

MDA-MB-231 [32] = assay: as above
Description: as §2

MDA-MB-453 [33] = assay: as above
Description: as §2

BT-549 [34] = assay: as above
Description: as §2

MFM-223 [35] = assay: as above
Description: as §2

CAL-148 [36] = assay: as above
Description: as §2

Structure (SMILES) | normalised response (MDA-MB-468 [1]) [%] | normalised response (MCF-10A) [%] | normalised response (HDQ-P1 [2]) [%] | normalised response (SK-BR-3 [3]) [%] | normalised response (Hs578T [4]) [%] | normalised response (CAL-85-1 [5]) [%] | normalised response (HCC1599 [6]) [%] | normalised response (DU-4475 [7]) [%] | normalised response (HCC1143 [8]) [%] | normalised response (MDA-MB-436 [9]) [%] | normalised response (BT-474 [10]) [%] | normalised response (HCC1937 [11]) [%] | normalised response (CAL-120 [12]) [%] | normalised response (CAL-51 [13]) [%] | normalised response (MDA-MB-231 [14]) [%] | normalised response (MDA-MB-453 [15]) [%] | normalised response (BT-549 [16]) [%] | normalised response (MFM-223 [17]) [%] | normalised response (CAL-148 [18]) [%] | normalised viability (MDA-MB-468 [19]) [%] | normalised viability (HDQ-P1 [20]) [%] | normalised viability (SK-BR-3 [21]) [%] | normalised viability (Hs578T [22]) [%] | normalised viability (CAL-85-1 [23]) [%] | normalised viability (HCC1599 [24]) [%] | normalised viability (DU-4475 [25]) [%] | normalised viability (HCC1143 [26]) [%] | normalised viability (MDA-MB-436 [27]) [%] | normalised viability (BT-474 [28]) [%] | normalised viability (HCC1937 [29]) [%] | normalised viability (CAL-120 [30]) [%] | normalised viability (CAL-51 [31]) [%] | normalised viability (MDA-MB-231 [32]) [%] | normalised viability (MDA-MB-453 [33]) [%] | normalised viability (BT-549 [34]) [%] | normalised viability (MFM-223 [35]) [%] | normalised viability (CAL-148 [36]) [%]
C=CC[C@@H]1/C=C(\C)C[C@H](C)C[C@H](OC)[C@H]2O[C@@](O)(C(=O)C(=O)N3CCCC[C@H]3C(=O)O[C@H](/C(C)=C/[C@@H]3CC[C@@H](O)[C@H](OC)C3)[C@H](C)[C@@H](O)CC1=O)[C@H](C)C[C@@H]2OC [Tacrolimus] (1 nM) | 98.7 | 106 | 118 | 109 | 99.1 | 97.8 | 103 | 102 | 93.9 | 103 | 101 | 98.8 | 98 | 93.1 | 99.3 | 110 | 96.6 | 98.5 | 103 | 110 | 114 | 98.2 | 106 | 98.6 | 99.3 | 98.5 | 109 | 119 | 71 | 102 | 111 | 105 | 102 | 107 | 109 | 116 | 110
Clc1ccc(C(c2ccccc2Cl)C(Cl)Cl)cc1 (stereo unspecified) [Mitotane] (1 nM) | 96.4 | 94.9 | 97.8 | 95.4 | 102 | 95.5 | 103 | 95.3 | 101 | 85.8 | 90.7 | 94.5 | 95.2 | 109 | 93.6 | 96 | 108 | 97.7 | 99.4 | 108 | 112 | 101 | 118 | 92.4 | 112 | 104 | 98 | 90.9 | 89.9 | 83.8 | 99.2 | 111 | 99 | 107 | 103 | 95.1 | 117
Cc1c2oc3c(C)ccc(C(=O)N[C@@H]4C(=O)N[C@H](C(C)C)C(=O)N5CCC[C@H]5C(=O)N(C)CC(=O)N(C)[C@@H](C(C)C)C(=O)O[C@@H]4C)c3nc-2c(C(=O)N[C@@H]2C(=O)N[C@H](C(C)C)C(=O)N3CCC[C@H]3C(=O)N(C)CC(=O)N(C)[C@@H](C(C)C)C(=O)O[C@@H]2C)c(N)c1=O [Dactinomycin] (0.1 nM) | 92.2 | 104 | 93.1 | 99 | 110 | 107 | 90.6 | 103 | 106 | 123 | 96 | 95.9 | 94.2 | 101 | 102 | 102 | 99.8 | 104 | 97.4 | 92.2 | 108 | 96 | 125 | 97.2 | 79.1 | 90.5 | 93.7 | 94.9 | 95.7 | 78.5 | 95.6 | 94 | 91.6 | 94.6 | 91.3 | 104 | 90.5
